Reference: PubChem BioAssay AID1845213 (Molecular Pharmacology Branch, DTP, NCI, 2023)
Calls of active or inactive are those of the source. The calls were made as follows: active = viability on the fitted dose curve at most 10% of control; inactive = the rest.

Test system: NCI-H841 complex tumor spheroid viability
Assay: Anticancer human tumor NCI-H841 cell line growth inhibition;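 as to IC50: spheroids exposed to compounds for 7 days before readout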;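 as to viability, T/C: spheroids exposed to compounds for 7 days before readout; 100% = DMSO vehicle control wells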
Details: for IC50: curve of first compound; for viability, T/C: stronger effect = lower value
Summary of the method: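 Complex spheroids of malignant cells with endothelial cells and mesenchymal stem cells; agents alone or combined, from near clinical Cmax (or 10 microM if unknown) down in half-log steps, 0.25% DMSO final.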

[1] = second compound 1 µM, first compound 0.0316 µM
[2] = second compound 1 µM, first compound 0.1 µM
[3] = second compound 1 µM, first compound 0.316 µM
[4] = second compound 1 µM, first compound 1 µM
[5] = second compound 1 µM, first compound 3.16 µM
[6] = second compound 1 µM, first compound 10 µM
[7] = second compound 3.16 µM, first compound 0.0316 µM
[8] = second compound 3.16 µM, first compound 0.1 µM
[9] = second compound 3.16 µM, first compound 0.316 µM
[10] = second compound 3.16 µM, first compound 1 µM
[11] = second compound 3.16 µM, first compound 3.16 µM
[12] = second compound 3.16 µM, first compound 10 µM
[13] = second compound 10 µM, first compound 0.0316 µM
[14] = second compound 10 µM, first compound 0.1 µM
[15] = second compound 10 µM, first compound 0.316 µM
[16] = second compound 10 µM, first compound 1 µM
[17] = second compound 10 µM, first compound 3.16 µM
[18] = second compound 10 µM, first compound 10 µM
[19] = second compound 31.6 µM, first compound 0.0316 µM
[20] = second compound 31.6 µM, first compound 0.1 µM
[21] = second compound 31.6 µM, first compound 0.316 µM
[22] = second compound 31.6 µM, first compound 1 µM
[23] = second compound 31.6 µM, first compound 3.16 µM
[24] = second compound 31.6 µM, first compound 10 µM
[25] = second compound 100 µM, first compound 0.0316 µM
[26] = second compound 100 µM, first compound 0.1 µM
[27] = second compound 100 µM, first compound 0.316 µM
[28] = second compound 100 µM, first compound 1 µM
[29] = second compound 100 µM, first compound 3.16 µM
[30] = second compound 100 µM, first compound 10 µM

Compound | IC50 (second compound 1 µM) [nM] | IC50 (second compound 3.16 µM) [nM] | IC50 (second compound 10 µM) [nM] | IC50 (second compound 31.6 µM) [nM] | IC50 (second compound 100 µM) [nM] | viability, T/C [1] [%] | viability, T/C [2] [%] | viability, T/C [3] [%] | viability, T/C [4] [%] | viability, T/C [5] [%] | viability, T/C [6] [%] | viability, T/C [8] [%] | viability, T/C [9] [%] | viability, T/C [10] [%] | viability, T/C [11] [%] | viability, T/C [12] [%] | viability, T/C [13] [%] | viability, T/C [14] [%] | viability, T/C [15] [%] | viability, T/C [16] [%] | also measured
CC1COCCN1c1cc(-c2ccnn2C)c2ccnc(-c3ccn[nH]3)c2n1 (stereo not given) + Cn1nnc2c(C(N)=O)ncn2c1=O | 49.1 | 37.6 | 36.3 | 36.9 | < 31.6 | 66 | 24.1 | 8.33 | 2.75 | 1.79 | 1.91 | 20.8 | 5.48 | 2.34 | 1.67 | 1.99 | 55.4 | 12.6 | 6.12 | 2.58 | outcome [7]: inactive; viability, T/C [17]: 1.4%; viability, T/C [18]: 1.82%; viability, T/C [19]: 56%; viability, T/C [20]: 12.1%; viability, T/C [21]: 4.22%; viability, T/C [22]: 1.97%; viability, T/C [23]: 1.42%; viability, T/C [24]: 1.66%; viability, T/C [25]: 23.6%; viability, T/C [26]: 6.68%; viability, T/C [27]: 1.75%; viability, T/C [28]: 2.09%; viability, T/C [29]: 2.84%; viability, T/C [30]: 1.47%
COc1cc(C)[nH]c(=O)c1CN1CCc2c(Cl)cc(C(OC)C3COC3)c(Cl)c2C1=O (stereo not given) + Cn1nnc2c(C(N)=O)ncn2c1=O | 398 | 547 | 367 | 428 | 394 | 79.7 | 67.1 | 48.4 | 45.4 | 33.9 | 31.3 | 63.5 | 54.5 | 47.8 | 38.5 | 32.8 | 86 | 67 | 50.6 | 41.1 | viability, T/C [7]: 85%; viability, T/C [17]: 35.9%; viability, T/C [18]: 30.9%; viability, T/C [19]: 83.9%; viability, T/C [20]: 70.3%; viability, T/C [21]: 49.8%; viability, T/C [22]: 41.8%; viability, T/C [23]: 36.9%; viability, T/C [24]: 27%; viability, T/C [25]: 87.3%; viability, T/C [26]: 77.6%; viability, T/C [27]: 51.2%; viability, T/C [28]: 39.9%; viability, T/C [29]: 36.5%; viability, T/C [30]: 30.8%
Cc1cc(C)c(CNC(=O)c2cc(-c3ccc(CN4CCOCC4)cc3)cc3c2cnn3C2CCCC2)c(=O)[nH]1 + Cn1nnc2c(C(N)=O)ncn2c1=O | 7500 | > 10000 | > 10000 | 9720 | 7700 | 101 | 102 | 97.2 | 94.6 | 78.9 | 40.1 | 105 | 102 | 97.4 | 85.2 | 56.3 | 103 | 108 | 105 | 94.9 | viability, T/C [7]: 101%; viability, T/C [17]: 87.2%; viability, T/C [18]: 52.5%; outcome [19]: inactive; viability, T/C [20]: 101%; viability, T/C [21]: 97.6%; viability, T/C [22]: 103%; viability, T/C [23]: 83%; viability, T/C [24]: 49.2%; viability, T/C [25]: 98.3%; viability, T/C [26]: 99.2%; viability, T/C [27]: 95.8%; viability, T/C [28]: 97.6%; viability, T/C [29]: 77.6%; viability, T/C [30]: 41.7%
[2H]c1nc(C)nc([2H])c1-c1cc(NC[C@@H](C)c2cccc3c(C(=O)NC)ccnc23)ncn1 + Cn1nnc2c(C(N)=O)ncn2c1=O | > 10000 | > 10000 | > 10000 | > 10000 | > 10000 | 98 | 97.6 | 94.8 | 95 | 93.2 | 91.4 | 99.8 | 101 | 101 | 95 | 99.3 | 99.6 | 99.8 | 97.7 | 101 | viability, T/C [7]: 98.8%; viability, T/C [17]: 98.9%; viability, T/C [18]: 96.5%; viability, T/C [19]: 97%; viability, T/C [20]: 97.7%; viability, T/C [21]: 100%; viability, T/C [22]: 98%; viability, T/C [23]: 97.4%; outcome [24]: inactive; viability, T/C [25]: 93.4%; viability, T/C [26]: 95.7%; viability, T/C [27]: 92.5%; viability, T/C [28]: 95.9%; viability, T/C [29]: 95.8%; viability, T/C [30]: 91.2%
